Data taken from patent US20240018154A1, “NEW INDAZOLE DERIVATIVES” (Hoffmann-La Roche Inc., priority 2020, published 2024).
Where a name gives a salt, the structure may show the parent alone.

What follows are compounds tested against T1, EGFR LRCS (BaF3-LRCS cell line) (Homo sapiens, UniProt P00533, C797S/L858R) (assay: HTRF Phospho EGFR LRCS assay (cellular)). Settings: BaF3-LRCS cells, 4 hours incubation with compound, Phospho-EGFR HTRF readout.
T1 construct: host or cells: BaF3 (BaF3-LRCS engineered line, kept under puromycin)
T1 sequence (P00533 25-1210 C797S/L858R): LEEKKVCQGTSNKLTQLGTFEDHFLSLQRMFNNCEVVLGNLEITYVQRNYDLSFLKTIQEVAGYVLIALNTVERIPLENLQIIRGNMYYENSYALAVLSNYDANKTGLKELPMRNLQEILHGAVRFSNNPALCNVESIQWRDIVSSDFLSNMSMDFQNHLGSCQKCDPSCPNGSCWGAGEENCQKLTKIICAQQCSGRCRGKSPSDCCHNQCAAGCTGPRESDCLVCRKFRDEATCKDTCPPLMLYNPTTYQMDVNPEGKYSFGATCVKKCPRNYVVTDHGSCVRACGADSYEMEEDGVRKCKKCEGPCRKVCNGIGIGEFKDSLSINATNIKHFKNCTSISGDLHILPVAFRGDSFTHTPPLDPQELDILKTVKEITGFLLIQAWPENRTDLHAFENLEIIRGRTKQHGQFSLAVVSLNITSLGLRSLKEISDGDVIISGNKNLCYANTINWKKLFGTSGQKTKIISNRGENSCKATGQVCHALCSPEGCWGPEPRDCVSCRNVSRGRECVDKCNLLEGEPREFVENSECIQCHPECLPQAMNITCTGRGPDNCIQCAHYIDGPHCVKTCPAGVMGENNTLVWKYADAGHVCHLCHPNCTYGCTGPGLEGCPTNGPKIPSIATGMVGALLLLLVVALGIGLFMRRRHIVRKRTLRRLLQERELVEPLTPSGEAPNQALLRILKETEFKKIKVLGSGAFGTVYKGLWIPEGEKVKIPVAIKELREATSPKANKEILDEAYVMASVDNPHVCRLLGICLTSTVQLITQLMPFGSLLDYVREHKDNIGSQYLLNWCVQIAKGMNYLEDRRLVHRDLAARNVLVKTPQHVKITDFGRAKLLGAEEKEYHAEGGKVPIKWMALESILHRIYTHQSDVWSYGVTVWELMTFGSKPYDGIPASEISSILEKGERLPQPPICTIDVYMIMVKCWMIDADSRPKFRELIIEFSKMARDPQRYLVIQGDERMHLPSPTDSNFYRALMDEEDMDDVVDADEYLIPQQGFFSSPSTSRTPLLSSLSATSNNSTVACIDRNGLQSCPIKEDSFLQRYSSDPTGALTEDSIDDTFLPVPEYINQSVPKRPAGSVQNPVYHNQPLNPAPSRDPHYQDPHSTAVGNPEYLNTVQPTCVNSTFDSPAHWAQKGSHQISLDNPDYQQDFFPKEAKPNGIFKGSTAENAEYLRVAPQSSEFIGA
Type: cell-based
Protocol: HTRF Phospho EGFR LRCS Assay (Cellular)
BaF3-LRCS cell line were obtained from Crownbio (San Diego, CA, USA). Cells were maintained at 37° C., 5% CO2 in RPMI ATCC (Gibco 31870)+2 mM Glutamine+0.5 μg/ml Puromycin supplemented with 10% fetal bovine serum (FBS) (Gibco).
Cells are transferred as above to Greiner Bio-One, Nr. 784-08 micro-titerplate at 20000 cells/well in 12.5 μl of growth medium/well after the plates had been pre-filled with 12.5 nl of DMSO solutions of the to be tested compounds (in dose response) or DMSO only. After spinning the plates at 300×g for 30 seconds the cells were incubated for 4 hours at 37 C, 5% CO2, 95% humidity. The cells were lysed by adding to the compound mix 4 μl/well of the supplemented lysis buffer (Cis-bio, Phospho-EGFR HTRF kit, 64EG1PEH), followed by incubation for 30 min at room temperature with shaking (400 rpm). The plates were then frozen and stored overnight at −80° C. On the next day and after thawing the plates, 4 μl of a mixture of anti-Phospho-EGFR Cryptate and of anti-Phospho-EGFR-d2 antibody solutions prepared in the supplied detection buffer was added to each well. The lidded plates were then incubated for 4 h at room temperature before reading the fluorescence emission at 616 and 665 nm using an Envision reader (Perkin Elmer). Data was analyzed in similar fashion as above using the normalized ratio of the 665 to 616 signals multiplied by 10000.
`Cc1c(-c2ccc(N3CCOCC3)cc2)cc(C(F)F)c2cn(C(C(=O)Nc3nccs3)c3ncn4c3C[C@@H](F)C4)nc12` (stereo partly drawn) [Example 1, 2-[4-(Difluoromethyl)-7-methyl-6-(4-morpholinophenyl)indazol-2-yl]-2-[(6R)-6-fluoro-6,7-dihydro-5H-pyrrolo[1,2-c]imidazol-1-yl]-N-thiazol-2-yl-acetamide] gave an IC50 of 0.008 µM.
`Cc1c(-c2ccc(CN3CCC(C(C)O)CC3)cc2)cc(C(F)F)c2cn(C(C(=O)Nc3nccs3)c3ncn4c3C[C@@H](F)C4)nc12` (stereo partly drawn) [Example 12, 2-[4-(Difluoromethyl)-6-[4-[[4-(1-hydroxyethyl)-1-piperidyl]methyl]phenyl]-7-methyl-indazol-2-yl]-2-[(6R)-6-fluoro-6,7-dihydro-5H-pyrrolo[1,2-c]imidazol-1-yl]-N-thiazol-2-yl-acetamide] showed an IC50 of 0.018 µM.
`Cc1c(-c2ccc(CN3CCC(CO)CC3)cc2)cc(C(F)F)c2cn(C(C(=O)Nc3nccs3)c3ncn4c3C[C@@H](F)C4)nc12` (stereo partly drawn) [Example 6, 2-[4-(Difluoromethyl)-6-[4-[[4-(hydroxymethyl)-1-piperidyl]methyl]phenyl]-7-methyl-indazol-2-yl]-2-[(6R)-6-fluoro-6,7-dihydro-5H-pyrrolo[1,2-c]imidazol-1-yl]-N-thiazol-2-yl-acetamide] was tested, and the IC50 was 0.016 µM.
Compound `CCN1C[C@H]2CN(c3ccc(-c4cc(C(F)F)c5cn(C(C(=O)Nc6nccs6)c6ncn7c6C[C@@H](F)C7)nc5c4C)cc3)C[C@]2(F)C1` (stereo partly drawn) [Example 25, 2-[6-[4-[(3aR,6aS)-2-Ethyl-3a-fluoro-3,4,6,6a-tetrahydro-1H-pyrrolo[3,4-c]pyrrol-5-yl]phenyl]-4-(difluoromethyl)-7-methyl-indazol-2-yl]-2-[(6R)-6-fluoro-6,7-dihydro-5H-pyrrolo[1,2-c]imidazol-1-yl]-N-thiazol-2-yl-acetamide] has an IC50 of 0.029 µM.
Work on `Cc1c(-c2ccc(N3CCN4CCC3C4)cc2)cc(C(F)F)c2cn(C(C(=O)Nc3nccs3)c3ncn4c3C[C@@H](F)C4)nc12` (stereo partly drawn) [Example 13, 2-[6-[4-(1,4-Diazabicyclo[3.2.1]octan-4-yl)phenyl]-4-(difluoromethyl)-7-methyl-indazol-2-yl]-2-[(6R)-6-fluoro-6,7-dihydro-5H-pyrrolo[1,2-c]imidazol-1-yl]-N-thiazol-2-yl-acetamide] yielded an IC50 of 0.017 µM.
For `Cc1c(-c2ccc(CN3CCC(O)CC3)cc2)cc(C(F)F)c2cn(C(C(=O)Nc3nccs3)c3ncn4c3C[C@@H](F)C4)nc12` (stereo partly drawn) [Example 7, 2-[4-(Difluoromethyl)-6-[4-[(4-hydroxy-1-piperidyl)methyl]phenyl]-7-methyl-indazol-2-yl]-2-[(6R)-6-fluoro-6,7-dihydro-5H-pyrrolo[1,2-c]imidazol-1-yl]-N-thiazol-2-yl-acetamide], the IC50 was 0.014 µM.
`Cc1c(-c2ccc(N3CCOC(CN(C)C)C3)cc2)cc(C(F)F)c2cn(C(C(=O)Nc3nccs3)c3ncn4c3C[C@@H](F)C4)nc12` (stereo partly drawn) [Example 26, 2-[4-(Difluoromethyl)-6-[4-[2-[(dimethylamino)methyl]morpholin-4-yl]phenyl]-7-methyl-indazol-2-yl]-2-[(6R)-6-fluoro-6,7-dihydro-5H-pyrrolo[1,2-c]imidazol-1-yl]-N-thiazol-2-yl-acetamide] showed an IC50 of 0.078 µM.
In the case of `Cc1c(-c2ccc(N3CCC(C)(O)CC3)cc2)cc(C(F)F)c2cn(C(C(=O)Nc3nccs3)c3ncn4c3C[C@@H](F)C4)nc12` (stereo partly drawn) [Example 24, 2-[4-(Difluoromethyl)-6-[4-(4-hydroxy-4-methyl-1-piperidyl)phenyl]-7-methyl-indazol-2-yl]-2-[(6R)-6-fluoro-6,7-dihydro-5H-pyrrolo[1,2-c]imidazol-1-yl]-N-thiazol-2-yl-acetamide], the IC50 is reported as 0.025 µM.
Compound `Cc1c(-c2ccc(CN(C)C3CCC(O)CC3)cc2)cc(C(F)F)c2cn(C(C(=O)Nc3nccs3)c3ncn4c3C[C@@H](F)C4)nc12` (stereo partly drawn) [Example 28, 2-[4-(Difluoromethyl)-6-[4-[[(4-hydroxycyclohexyl)-methyl-amino]methyl]phenyl]-7-methyl-indazol-2-yl]-2-[(6R)-6-fluoro-6,7-dihydro-5H-pyrrolo[1,2-c]imidazol-1-yl]-N-thiazol-2-yl-acetamide] has an IC50 of 0.034 µM.
For `Cc1c(-c2ccc(C3CC(CN4CCC(CO)CC4)C3)cc2)cc(C(F)F)c2cn(C(C(=O)Nc3nccs3)c3ncn4c3C[C@@H](F)C4)nc12` (stereo partly drawn) [Example 15, 2-[4-(Difluoromethyl)-6-[4-[3-[[4-(hydroxymethyl)-1-piperidyl]methyl]cyclobutyl]phenyl]-7-methyl-indazol-2-yl]-2-[(6R)-6-fluoro-6,7-dihydro-5H-pyrrolo[1,2-c]imidazol-1-yl]-N-thiazol-2-yl-acetamide], the IC50 was 0.024 µM.
In the case of `Cc1c(-c2ccc(OCCN3CCC(CO)CC3)cc2)cc(C(F)F)c2cn(C(C(=O)Nc3nccs3)c3ncn4c3C[C@@H](F)C4)nc12` (stereo partly drawn) [Example 5, 2-[4-(Difluoromethyl)-6-[4-[2-[4-(hydroxymethyl)-1-piperidyl]ethoxy]phenyl]-7-methyl-indazol-2-yl]-2-[(6R)-6-fluoro-6,7-dihydro-5H-pyrrolo[1,2-c]imidazol-1-yl]-N-thiazol-2-yl-acetamide], the IC50 is reported as 0.019 µM.
With `Cc1c(-c2ccc(OCCN3CCOCC3)cc2)cc(C(F)F)c2cn(C(C(=O)Nc3nccs3)c3ncn4c3C[C@@H](F)C4)nc12` (stereo partly drawn) [Example 18, 2-[4-(Difluoromethyl)-7-methyl-6-[4-(2-morpholinoethoxy)phenyl]indazol-2-yl]-2-[(6R)-6-fluoro-6,7-dihydro-5H-pyrrolo[1,2-c]imidazol-1-yl]-N-thiazol-2-yl-acetamide] the IC50 was 0.028 µM.
Work on `Cc1c(-c2ccc(OCCN3CCC(O)CC3)cc2)cc(C(F)F)c2cn(C(C(=O)Nc3nccs3)c3ncn4c3C[C@@H](F)C4)nc12` (stereo partly drawn) [Example 10, 2-[4-(Difluoromethyl)-6-[4-[2-(4-hydroxy-1-piperidyl)ethoxy]phenyl]-7-methyl-indazol-2-yl]-2-[(6R)-6-fluoro-6,7-dihydro-5H-pyrrolo[1,2-c]imidazol-1-yl]-N-thiazol-2-yl-acetamide] yielded an IC50 of 0.017 µM.
Work on `Cc1c(-c2ccc(N3CCC(S(C)(=O)=O)CC3)cc2)cc(C(F)F)c2cn(C(C(=O)Nc3nccs3)c3ncn4c3C[C@@H](F)C4)nc12` (stereo partly drawn) [Example 16, 2-[4-(Difluoromethyl)-7-methyl-6-[4-(4-methylsulfonyl-1-piperidyl)phenyl]indazol-2-yl]-2-[(6R)-6-fluoro-6,7-dihydro-5H-pyrrolo[1,2-c]imidazol-1-yl]-N-thiazol-2-yl-acetamide] yielded an IC50 of 0.016 µM.
Work on `Cc1c(-c2ccc(CCN3CCC(CO)CC3)cc2)cc(C(F)F)c2cn(C(C(=O)Nc3nccs3)c3ncn4c3C[C@@H](F)C4)nc12` (stereo partly drawn) [Example 9, 2-[4-(Difluoromethyl)-6-[4-[2-[4-(hydroxymethyl)-1-piperidyl]ethyl]phenyl]-7-methyl-indazol-2-yl]-2-[(6R)-6-fluoro-6,7-dihydro-5H-pyrrolo[1,2-c]imidazol-1-yl]-N-thiazol-2-yl-acetamide] yielded an IC50 of 0.027 µM.
In the case of `Cc1c(-c2ccc(N3CCC(O)CC3)cc2)cc(C(F)F)c2cn(C(C(=O)Nc3nccs3)c3ncn4c3C[C@@H](F)C4)nc12` (stereo partly drawn) [Example 11, 2-[4-(Difluoromethyl)-6-[4-(4-hydroxy-1-piperidyl)phenyl]-7-methyl-indazol-2-yl]-2-[(6R)-6-fluoro-6,7-dihydro-5H-pyrrolo[1,2-c]imidazol-1-yl]-N-thiazol-2-yl-acetamide], the IC50 is reported as 0.01 µM.
In the case of `Cc1c(-c2ccc(CCN3CCC(C(C)O)CC3)cc2)cc(C(F)F)c2cn(C(C(=O)Nc3nccs3)c3ncn4c3C[C@@H](F)C4)nc12` (stereo partly drawn) [Example 14, 2-[4-(Difluoromethyl)-6-[4-[2-[4-(1-hydroxyethyl)-1-piperidyl]ethyl]phenyl]-7-methyl-indazol-2-yl]-2-[(6R)-6-fluoro-6,7-dihydro-5H-pyrrolo[1,2-c]imidazol-1-yl]-N-thiazol-2-yl-acetamide], the IC50 is reported as 0.016 µM.
Work on `Cc1c(-c2ccc(N3C[C@H]4CN(CC(C)F)C[C@H]4C3)cc2)cc(C(F)F)c2cn(C(C(=O)Nc3nccs3)c3ncn4c3C[C@@H](F)C4)nc12` (stereo partly drawn) [Example 29, 2-[6-[4-[(3aR,6aS)-2-(2-Fluoropropyl)-1,3,3a,4,6,6a-hexahydropyrrolo[3,4-c]pyrrol-5-yl]phenyl]-4-(difluoromethyl)-7-methyl-indazol-2-yl]-2-[(6R)-6-fluoro-6,7-dihydro-5H-pyrrolo[1,2-c]imidazol-1-yl]-N-thiazol-2-yl-acetamide] yielded an IC50 of 0.028 µM.
In the case of `Cc1c(-c2ccc(N3CC(CN4CCC(CO)CC4)C3)cc2)cc(C(F)F)c2cn(C(C(=O)Nc3nccs3)c3ncn4c3C[C@@H](F)C4)nc12` (stereo partly drawn) [Example 19, 2-(4-(Difluoromethyl)-6-(4-(3-((4-(hydroxymethyl)piperidin-1-yl)methyl)azetidin-1-yl)phenyl)-7-methyl-211-indazol-2-yl)-2-((R)-6-fluoro-6,7-dihydro-5H-pyrrolo[1,2-c]imidazol-1-yl)-N-(thiazol-2-yl)acetamide], the IC50 is reported as 0.016 µM.
In the case of `CNCCc1ccc(-c2cc(C(F)F)c3cn(C(C(=O)Nc4nccs4)c4ncn5c4C[C@@H](F)C5)nc3c2C)cc1` (stereo partly drawn) [Example 3, 2-[4-(Difluoromethyl)-7-methyl-6-[4-[2-(methylamino)ethyl]phenyl]indazol-2-yl]-2-[(6R)-6-fluoro-6,7-dihydro-5H-pyrrolo[1,2-c]imidazol-1-yl]-N-thiazol-2-yl-acetamide Hydrochloride], the IC50 is reported as 0.018 µM.
